Measured values reported in US20250368635A1, “HETEROARYL DERIVATIVE COMPOUND, AND USES THEREOF” (VORONOI, INC., priority 2022, published 2025).

Each molecule was assayed on Ba/F3 cells expressing EGFR Del19/C797S (EGFR DC) (assay: Inhibition of proliferation of Ba/F3 cells expressing EGFR Del19/C797S (CellTiter-Glo, 72 h)). Conditions: Mus musculus, BaF3, 72 hours treatment.
Format: cell-based
Experimental: The following experiment was performed to evaluate the inhibitory activity of the compounds according to the present invention on the proliferation of Ba/F3 cells expressing EGFR Del19/C797S (EGFR DC) and EGFR L858R/C797S (EGFR LC) mutations.
Ba/F3 cells were cultured using medium (RPMI-1640) containing 10% fetal bovine serum (FBS) and 5 ng/ml IL-3 (R&D Systems). The transduced Ba/F3 cells were cultured by adding 1 μg/ml puromycin (Invitrogen) to the same medium.
24 hours prior to treatment with compounds, 3,000 to 5,000 cells were seeded on a well plate (white clear bottom 96 well plate, Corning). The compounds were diluted in dimethyl sulfoxide (3-fold dilution, total of 12 concentrations) and injected at 1 μl each so that the final concentration was 0.2 nM to 5 μM. After 72 hours post treatment with compounds, living cells were stored at room temperature for 10 minutes using CellTiter-Glo luminescent cell-viability reagent (Promega), and the luminescence intensity thereof was measured using a reader (Synergy Neo, Biotek). Each test was repeated three times. The result values were calculated as a cell growth rate (%) compared to the control group. A graph was created using the GraphPad Prism version 8.3.0 program, and GI50 values were calculated.
With COc1cc(N2CCC3(CC2)CC(N(C)C)C3)c(-c2cnn(C)c2)cc1Nc1cc(N2OCC[C@@H]2c2cccc(F)c2F)ncn1 [Example 31, (R)-7-(4-((6-(3-(2,3-difluorophenyl)isoxazolidin-2-yl)pyrimidin-4-yl)amino)-5-methoxy-2-(1-methyl-1H-pyrazol-4-yl)phenyl)-N,N-dimethyl-7-azaspiro[3.5]nonan-2-amine] the GI50 was < 100 nM.
Molecule COc1cc(N2CCC(N3CCC(F)(F)CC3)CC2)c(-c2cnn(C)c2)cc1Nc1cc(N2OCC[C@@H]2c2cccc(F)c2F)ncn1 [Example 61, (R)-N-(4-(4,4-difluoro-[1,4′-bipiperidin]-1′-yl)-2-methoxy-5-(1-methyl-1H-pyrazol-4-yl)phenyl)-6-(3-(2,3-difluorophenyl)isoxazolidin-2-yl)pyrimidin-4-amine] has a GI50 of 100 to 1000 nM.
In the case of COc1cc(N2CCC(N3CC[C@H](OC)C3)CC2)c(-c2cnn(C)c2)cc1Nc1cc(N2OCC[C@@H]2c2cccc(F)c2F)ncn1 [Example 70, 6-((R)-3-(2,3-difluorophenyl)isoxazolidin-2-yl)-N-(2-methoxy-4-(4-((S)-3-methoxypyrrolidin-1-yl)piperidin-1-yl)-5-(1-methyl-1H-pyrazol-4-yl)phenyl)pyrimidin-4-amine], the GI50 was 100 to 1000 nM.
COc1cc(N2CCC(N3CCOC(C(F)(F)F)C3)CC2)c(-c2cnn(C)c2)cc1Nc1cc(N2OCC[C@@H]2c2cccc(F)c2F)ncn1 (stereo partly drawn) [Example 73, 6-((R)-3-(2,3-difluorophenyl)isoxazolidin-2-yl)-N-(2-methoxy-5-(1-methyl-1H-pyrazol-4-yl)-4-(4-(2-(trifluoromethyl)morpholino)piperidin-1-yl)phenyl)pyrimidin-4-amine] showed a GI50 of 100 to 1000 nM.
For COc1cc(N2CCC(N3CC(OC)C3)CC2)c(-c2cnn(C)c2)cc1Nc1cc(N2OCC[C@@H]2c2cccc(F)c2F)ncn1 [Example 102, (R)-6-(3-(2,3-difluorophenyl)isoxazolidin-2-yl)-N-(2-methoxy-4-(4-(3-methoxyazetidin-1-yl)piperidin-1-yl)-5-(1-methyl-1H-pyrazol-4-yl)phenyl)pyrimidin-4-amine], the GI50 was < 100 nM.
COc1cc(N2C[C@H](C)O[C@@H](C)C2)c(-c2cnn(C)c2)cc1Nc1cc(N2OCC[C@@H]2c2cccc(F)c2F)ncn1 [Example 106, 6-((R)-3-(2,3-difluorophenyl)isoxazolidin-2-yl)-N-(4-((2S,6S)-2,6-dimethylmorpholino)-2-methoxy-5-(1-methyl-1H-pyrazol-4-yl)phenyl)pyrimidin-4-amine] was tested, and the GI50 was 100 to 1000 nM.
COc1cc(N2C3COCC2C3)c(-c2cnn(C)c2)cc1Nc1cc(N2OCC[C@@H]2c2cccc(F)c2F)ncn1 [Example 44, N-(4-(3-oxa-6-azabicyclo[3.1.1]heptan-6-yl)-2-methoxy-5-(1-methyl-1H-pyrazol-4-yl)phenyl)-6-((R)-3-(2,3-difluorophenyl)isoxazolidin-2-yl)pyrimidin-4-amine] was tested, and the GI50 was 100 to 1000 nM.
Work on COc1cc(N2CCC(N3CC[C@@H](OC)[C@@H](F)C3)CC2)c(-c2cnn(C)c2)cc1Nc1cc(N2OCC[C@@H]2c2cccc(F)c2F)ncn1 [Example 64, 6-((R)-3-(2,3-difluorophenyl)isoxazolidin-2-yl)-N-(4-((3,4R)-3-fluoro-4-methoxy-[1,4′-bipiperidin]-1′-yl)-2-methoxy-5-(1-methyl-1H-pyrazol-4-yl)phenyl)pyrimidin-4-amine] yielded a GI50 of 100 to 1000 nM.
Molecule COc1cc(N2CCN(C)CC2)c(-c2ccsc2)cc1Nc1cc(N2OCC[C@@H]2c2cccc(F)c2F)ncn1 [Example 76, (R)-6-(3-(2,3-difluorophenyl)isoxazolidin-2-yl)-N-(2-methoxy-4-(4-methylpiperazin-1-yl)-5-(thiophen-3-yl)phenyl)pyrimidin-4-amine] has a GI50 of 100 to 1000 nM.
Molecule COc1cc(N2C[C@@H](C)O[C@@H](C)C2)c(-c2cnn(C)c2)cc1Nc1cc(N2OCC[C@@H]2c2cccc(F)c2F)ncn1 [Example 107, 6-((R)-3-(2,3-difluorophenyl)isoxazolidin-2-yl)-N-(4-((2S,6R)-2,6-dimethylmorpholino)-2-methoxy-5-(1-methyl-1H-pyrazol-4-yl)phenyl)pyrimidin-4-amine] has a GI50 of 100 to 1000 nM.
